Experimental data as given in PubChem BioAssay (NCI).
“And” between values parts separate entries of the source, which are not always exact repeats. Equal values may be shown once.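 All cell lines were grown in 96-well plates and treated with compound for 48 hours. At the GI50, growth is halved. Definition used: TGI = concentration required for complete inhibition of growth.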

Tests used:
Assay in all cases: DTP human tumour cell line panel, 48 h
[1] = test system: HCT-15 colon
[2] = test system: COLO 205 colon
[3] = test system: EKVX NSCLC
[4] = test system: HT29 colon
[5] = test system: HCC-2998 colon
[6] = test system: NCI-H522 lung
[7] = test system: CCRF-CEM leukemia
[8] = test system: MDA-MB-231 breast
[9] = test system: U251 CNS
[10] = test system: A498 renal

Row | Structure (SMILES) | GI50 [1] | TGI [1] | GI50 [2] | TGI [2] | GI50 [3] | TGI [3] [µM] | GI50 [4] | TGI [4] [µM] | GI50 [5] [µM] | TGI [5] [µM] | GI50 [6] [µM] | TGI [6] [µM] | GI50 [7] [µM] | TGI [7] [µM] | GI50 [8] [µM] | TGI [8] [µM] | GI50 [9] | TGI [9] | GI50 [10] | TGI [10]
1 | C/C1=C\CC[C@@](C)(O)[C@H]2C[C@H](CC/C(C)=C/CC1)C1(CC1)C(=O)O2 | 17.6 µM | 36.8 µM | 32.5 µM | > 100 µM | 37 µM | > 100 | 36.6 µM | > 100 | 18 | 35.2 | 23.1 | 62.9 | 13.5 | 39 | 17.5 | 35.1 | 17.5 µM | 37.1 µM | 20100 nM | 66.2 µM
2 | CC(C)(C)c1ccc(C(=O)N/N=C/c2ccc(O)cc2O)cc1 | 0.325 µM | 2.12 µM | 0.377 µM | 6.76 µM | 0.356 µM | 11.8 | 0.885 µM | 8.33 | 0.695 | 7.62 | 1.2 | 14 | 0.26 | > 36.9 | 0.5 | 5.83 | 0.483 µM | 14.9 µM | 1270 nM | 6.09 µM
3 | NC(=O)Nc1ccc2ncnc(Nc3ccc(Cl)cc3)c2c1 | 20.1 µM | > 100 µM | 30.6 µM | > 100 µM | 0.369 µM | 11.9 | 25.3 µM | > 100 | 33.5 | > 100 | 6.08 | 36 | 20.3 | > 100 | 13.7 | > 61.4 | 25.4 µM | > 100 µM | 896 nM | 16.2 µM
4 | NC1=CC(=O)C(=O)c2cccnc21 | 5.37 µM | 23.4 µM | 16.6 µM | 30.1 µM | 12.5 µM | 26.1 | 15.1 µM | 38.7 | 14.7 | 28.4 | 7.32 | 22.6 | 3.16 | 10.5 | 1.93 | 18.8 | 3.92 µM | 15.4 µM | 10200 nM | 22.7 µM
5 | OC(COc1ccc(Cl)cc1Cl)CN1CCCC1 (stereo unspecified) |  | > 100 µM |  | > 100 µM |  | > 100 |  | 69.9 |  | > 100 |  | > 100 |  | > 100 |  | > 100 |  | > 100 µM |  | > 100 µM
6 | CC12C=CC(C)(O1)C1C2c2ccccc2S1(=O)=O (stereo unspecified) | 38.4 µM | > 100 µM | > 100 µM | > 100 µM | 92.9 µM | > 100 | > 100 µM | > 100 | > 100 | > 100 | 33.6 | > 100 | 28.2 | > 100 | 69.9 | > 100 | > 100 µM | > 100 µM | > 100000 nM | > 100 µM
7 | BrP(NC1CCCCCC1)(c1ccccc1)(c1ccccc1)c1ccccc1 |  | 46.3 µM |  | 5.4 µM |  | 35.4 |  | 4.66 |  | 6.49 |  | 8.5 |  | 29 |  | 16 |  | 13.4 µM |  | 7.26 µM
8 | COc1cc2c(cc1OCCCCCCNC(=O)c1cc3ccccc3[nH]1)N=CC1CCCN1C2=O (stereo unspecified) | 32.1 µM | > 100 µM | 45.4 µM | > 100 µM | 14.4 µM | 65.4 | 41.8 µM | > 100 | 35.8 | > 100 | 18.7 | 88.1 | 27.3 | > 100 | 20.9 | 79.1 | 40 µM | > 100 µM | 26300 nM | 64.2 µM
9 | COc1cc(Nc2ncc3c(n2)-c2ccc(Cl)cc2C(c2c(F)cccc2OC)=NC3)ccc1C(=O)O | 4.77 µM | > 100 µM | 0.0651 µM | 16.7 µM | 13.1 µM | 69.1 | 2.24 µM | 23.8 | 19.2 | > 100 | 0.501 | 3.88 | 0.579 | > 65.9 | 3.07 | > 100 | 2.74 µM | 33.3 µM | 211 nM | 2.55 µM
10 | COc1cc2c(cc1OCCCCC(=O)Nc1ccc(-c3nc4ccccc4s3)cc1)N=C[C@@H]1CCCN1C2=O | 2.85 µM | 9.81 µM | 1.69 µM | 3.07 µM | 2.45 µM | 5.52 | 2.16 µM | 7.75 | 1.58 | 3.23 | 0.972 | 2.65 | 1.2 | 3.62 | 2.08 | 10.2 | 1.9 µM | 6.63 µM | 1870 nM | 4.73 µM
11 | COc1ccc(N2CCN(CC(=O)N3CCN(c4nnc(-c5ccccc5)c(-c5ccccc5)n4)CC3)CC2)cc1 | 6.07 µM | > 100 µM | 3.25 µM | 13.7 µM | 4.47 µM | > 100 | 3.19 µM | 11.3 | 9.73 | > 100 | 19.1 | > 73.2 | 6.61 | > 100 | 65.3 | > 100 | 6.43 µM | > 100 µM | 3350 nM | 85.6 µM
12 | COC(=O)c1[nH]nc(-c2ccccc2)c1N1CCCCC1 | 36.2 µM | > 100 µM | > 100 µM | > 100 µM | 23.7 µM | 73.3 | 57.9 µM | > 100 |  |  | 36.8 | > 100 | 72.9 | > 100 | 31.2 | 65.9 | 26.6 µM | 78.8 µM | 17400 nM | 57.2 µM
13 | Cc1ccc(C(=O)Nc2ccc(CN3CCN(C)CC3)c(C(F)(F)F)c2)cc1C#Cc1cncc2ncccc12 | 0.318 µM | 1.28 µM | 0.221 µM | 5.56 µM | 1.12 µM | 16.7 | 0.142 µM | 1.41 | 2.47 | 22.2 | 0.323 | 15.6 | 0.902 | 3.61 | 0.177 | 1.1 | 0.52 µM | 1.84 µM | 209 nM | 0.656 µM
14 | C[C@@H]1CN(Cc2ccc(/C=C/c3n[nH]c4ccc5nc(-c6cn[nH]c6C(F)(F)F)c6c(c5c34)CCCC6)cc2)C[C@H](C)O1 | 1.76 µM | 11.3 µM | 3.21 µM | 12 µM | 3.7 µM | 17.3 | 2.77 µM | 7.82 | 2.57 | 10.5 | 2.02 | 16.2 | 0.718 | 34.2 | 3.24 | 15.5 | 5.45 µM | 19.5 µM | 1210 nM | 6.51 µM
15 | Nc1c(C(=O)Nc2cccc3ccccc23)sc2nc3c(cc12)CCCC3 | 0.565 µM | > 100 µM | 2.45 µM | 9.53 µM | 4.47 µM | > 100 | 1.18 µM | > 100 | 4.17 | > 100 | 0.417 | 4.6 | 0.658 | > 100 | 5.23 | > 100 | 0.781 µM | > 100 µM | 366 nM | 7.78 µM
16 | COc1cc(/C=C/C(=O)c2c(C)n([O-])c3cc(C)c(C)cc3[n+]2=O)cc(OC)c1OC | 10.3 µM | 25.6 µM | 20.7 µM | 67.4 µM | 18 µM | 42.1 | 18.6 µM | 34.7 | 14.2 | 32.6 | 10.9 | 28.9 | 5.68 | > 100 | 17 | 44.7 | 12 µM | 25.8 µM | 12100 nM | 37.7 µM
17 | c1ccc(-c2n(Cc3ccc4ccccc4n3)c3ccccc3[n+]2Cc2ccc3ccccc3n2)cc1 | 2.23 µM | 5.99 µM | 0.181 µM | 0.415 µM | 0.693 µM | 4.27 | 0.221 µM | 1.23 | 0.319 | 1.37 | 0.356 | 1.69 | 0.365 | 2.81 | 0.269 | 1.3 | 0.243 µM | 1.19 µM | 147 nM | 1.02 µM
18 | Cc1cc[c-]cc1.Fc1c[c-]c(-c2ccccn2)c(F)c1.N#CCC[PH+](CCC#N)c1ccccc1.[Pt+2] | 2.89 µM | 11.6 µM |  |  | 3.09 µM | 22.3 | 3.24 µM | 17.8 | 3.22 | 10.5 | 1.96 | 5.58 | 3.49 | > 100 | 2.74 | 7.57 | 3.61 µM | 15.4 µM | 2180 nM | 8.5 µM
19 | Cc1sc2nc(-c3ccccn3)c(/C=N/N=C(N)N)n2c1C | 4.98 µM | 13.5 µM | 4.97 µM | 11.4 µM | 8.63 µM | 19.8 | 5.68 µM | > 17.4 |  |  | 5.18 | 13.3 | 6.02 | 19 | 3.3 | 6.94 | 9.3 µM | 21 µM | 11800 nM | 24.4 µM
20 | N/C(=N\OC(=O)NC(Cl)=C(Cl)Cl)c1cc(C(F)(F)F)cc(C(F)(F)F)c1 |  | 48.4 µM |  | 33.4 µM |  | 27 |  | 34.4 |  | 25.8 |  |  |  | 32.2 |  | 34.2 |  | 31.3 µM |  | 32.3 µM
21 | COc1ccc(S(=O)(=O)O)cc1NS(=O)(=O)c1ccc(C)cc1 |  | > 100 µM |  | > 100 µM |  | > 100 |  | > 100 |  |  |  | > 100 |  | > 100 |  | > 100 |  | > 100 µM |  | > 100 µM
22 | CC[C@](O)(C(=O)O)c1cc2n(c(=O)c1CO)Cc1cc3ccccc3nc1-2 | 0.26 µM and 0.0703 µM | 25 µM and 7.92 µM | 0.0556 µM and 0.296 µM | 0.779 µM and 2.21 µM and 3.85 µM | 0.283 µM and 0.63 µM |  | 0.0354 µM and 0.11 µM |  |  |  |  |  | < 0.0025 | 4.04 | 0.969 | 6.84 | < 0.0025 µM and 0.0107 µM | 0.0386 µM and 0.164 µM and 0.0615 µM | 15 nM and 44.8 nM | 0.114 µM and 0.261 µM and 0.145 µM
23 | Cc1cc(-c2ccccc2)c(C)n1Cc1ccc(Cl)cc1 | 2.86 µM | > 100 µM | 5.96 µM | 27.8 µM |  |  | 3.28 µM | 17.6 | 15.1 | 93.7 | 2.57 | 9.26 | 3.46 | > 100 | 6.17 | 32.3 | 4.65 µM | > 100 µM | 2210 nM | 47.9 µM
24 | O=C1C=C(N2CC2)c2ccccc2C1=O | 1.85 µM | 3.79 µM | 2.01 µM | 3.49 µM |  |  | 2.58 µM | 5.57 | 1.76 | 3.86 | 1.42 | 2.93 | 2.32 | 6.23 | 2.05 | 5.11 | 1.55 µM | 3.01 µM | 1360 nM | 2.84 µM
25 | COC(=O)C1CC2(c3ccc(C)cc3)C(c3ccc(C)cc3)=C(c3ccc(C)cc3)C1(c1ccc(C)cc1)S2=O (stereo unspecified) | > 100 µM | > 100 µM | > 100 µM | > 100 µM | > 100 µM | > 100 | 41.4 µM | > 100 | > 100 | > 100 | 96.3 | > 100 |  |  | > 100 | > 100 | 65.1 µM | > 100 µM | 4880 nM | 50.5 µM
26 | Cc1c(N2C(=O)/C(=C\c3ccc(O)cc3)N=C2c2ccccc2)c(=O)n(-c2ccccc2)n1C | > 100 µM | > 100 µM | > 100 µM | > 100 µM | > 100 µM | > 100 | > 100 µM | > 100 | > 100 | > 100 | > 100 | > 100 |  |  | > 100 | > 100 | > 100 µM | > 100 µM | > 100000 nM | > 100 µM
27 | O=C1Nc2ccccc2C12CC(c1ccccc1)=NN2 (stereo unspecified) | 4.17 µM | > 100 µM | 4.62 µM | 25.9 µM |  |  | 3.73 µM | 27.5 | 36.1 | > 100 | 4.66 | 76 | 5.52 | > 100 | 8.61 | 79.7 | 5.4 µM | > 100 µM | 1850 nM | 9.24 µM
